The text below walks through data of patent US20050124607A1, “5-Substituted quinazolinone compounds useful as alpha 1A/B adrenergic receptor antagonists” (priority 2003, published 2005).

Structures are written as SMILES. Counter-ions that a name gives are not always drawn.

Turning to `COc1cc2[nH]c(N3CCN(C(=O)CCC(C)C)CC3)nc(=O)c2c(OC)c1OC.Cl`, the melting point was 198 to 201 °C.
Molecule `COc1cc2[nH]c(N3CCc4c(cccc4C4=NCCN4C)C3)nc(=O)c2c(C)c1OC` registered a melting point of 246 to 250 °C.
As for `COc1cc2[nH]c(N3Cc4ccc(Cl)cc4C3)nc(=O)c2c(OC)c1OC.Cl`, the figure is 289 to 291 °C; as for `COc1cc2[nH]c(N3CCN(C4=NCCN4c4cccc(F)c4)CC3)nc(=O)c2c(C)c1OC`, 257.9 to 260 °C; as for `COc1cc2[nH]c(N3CCN(c4nccn4C)CC3)nc(=O)c2c(C)c1OC`, 263 to 264 °C.
As for `COc1cc2[nH]c(N3CCc4c(cccc4N=C4N(C)CCN4C)C3)nc(=O)c2c(OC)c1OC`, the figure is 215 to 217.5 °C; as for `COc1cc2[nH]c(N3CCC(CCn4ccnc4N)CC3)nc(=O)c2c(C)c1OC`, 130.9 to 133.3 °C.
The value for `COc1cc2[nH]c(N3CCC(CCN4CCN=C4C)CC3)nc(=O)c2c(C)c1OC` was 266.1 to 269.5 °C; that for `COc1cc2[nH]c(N3CCC(CCn4ccnc4N)CC3)nc(=O)c2c(OC)c1OC` was 252.4 to 253.2 °C; that for `COc1cc2[nH]c(N3CCN(C4=NCCN4C)CC3)nc(=O)c2c(OC)c1OC` (as salt: HCl) was 181.6 to 188.8 °C.
`COc1cc2[nH]c(N3CCN(c4ccccn4)CC3)nc(=O)c2c(C)c1OC` (as salt: HCl) [Example 40, 6,7-Dimethoxy-5-meth-yl-2-(4-pyridin-2-yl-pipe-razin-1-yl)-1H-quina-zolin-4-one] yielded a melting point of 286.6 to 293.1 °C.
As to `COc1cc2[nH]c(N3CCN(c4cc(C)ccn4)CC3)nc(=O)c2c(C)c1OC` (as salt: HCl) [Example 43, 6,7-Dimethoxy-5-meth-yl-2-[4-(4-methyl-py-ridin-2-yl)-piperazin-1-yl]-1H-quina-zolin-4-one], the melting point was 277.7 to 280 °C.
The molecule `COc1cc2c(cc1OC)CN(c1nc(=O)c3c(OC)c(OC)c(OC)cc3[nH]1)CC2` (as salt: HCl) [Example 104, 2-(6,7-Dimethoxy-3,4-di-hydro-1H-isoquinolin-2-yl)-5,6,7-tri-methoxy-1H-quinazolin-4-one] returned a melting point of 267 to 270 °C.
As for `COc1cc2c(cc1OC)CN(c1nc(=O)c3c(OC(C)C)c(OC)c(OC)cc3[nH]1)CC2` (as salt: HCl) [Example 107, 2-(6,7-Dimethoxy-3,4-di-hydro-1H-isoquinolin-2-yl)-5-iso-propoxy-6,7-di-methoxy-1H-quina-zolin-4-one], the figure is 253.3 to 261.9 °C; as for `CCOc1c(OC)c(OC)cc2[nH]c(N3CCc4cc(OC)c(OC)cc4C3)nc(=O)c12` (as salt: HCl) [Example 109, 2-(6,7-Dimethoxy-3,4-di-hydro-1H-isoquinolin-2-yl)-5-eth-oxy-6,7-di-methoxy-1H-quinazolin-4-one], 218.5 to 221 °C.
Molecule `COc1cc2c(cc1OC)CN(c1nc(=O)c3c(O)c(OC)c(OC)cc3[nH]1)CC2` (as salt: HCl) [Example 110, 2-(6,7-Dimethoxy-3,4-di-hydro-1H-isoquinolin-2-yl)-5-hy-droxy-6,7-di-methoxy-1H-quinazolin-4-one] came in with a melting point of 255 to 259 °C.
The molecule `COc1cc2c(cc1OC)CN(c1nc(=O)c3c(C(C)C)c(OC)c(OC)cc3[nH]1)CC2` (as salt: HCl) [Example 119, 2-(6,7-Dimethoxy-3,4-di-hydro-1H-isoquinolin-2-yl)-5-iso-propyl-6,7-di-methoxy-1H-quina-zolin-4-one] had a melting point of 243 to 244 °C.
On to `COc1cc2c(cc1OC)CN(c1nc(=O)c3c(C)c(OC)c(OC)cc3[nH]1)CC2` (as salt: HCl) [Example 121, 2-(6,7-Dimethoxy-3,4-di-hydro-1H-isoquinolin-2-yl)-6,7-di-methoxy-5-meth-yl-1H-quinazolin-4-one], for which the melting point lay within 260 to 268 °C.
As for `COc1cc2[nH]c(N3CCc4c(ncnc4N4CCOCC4)C3)nc(=O)c2c(OC)c1OC` (as salt: HCl) [Example 135, 5,6,7-Trimethoxy-2-(4-morpho-lin-4-yl-5,8-di-hydro-6H-pyrido[3,4-d]py-rimidin-7-yl)-1H-quina-zolin-4-one], the figure is 190 to 192 °C.
The value for `COc1cc2[nH]c(N3CCCN(C(=O)N4CCOCC4)CC3)nc(=O)c2c(C)c1OC` (as salt: HCl) [Example 137, 6,7-Dimethoxy-5-meth-yl-2-[4-(morpho-line-4-carbo-nyl)-[1,4]diazepan-1-yl]-1H-quina-zolin-4-one] was 236.6 to 237.7 °C; that for `COc1cc2nc(N3CCN(C(=O)CCC(C)C)CC3)[nH]c(=O)c2c(OC)c1OC` (as salt: salt) [Example A-1, 5,6,7-Trimethoxy-2-[4-(4-methyl-pentanoyl)-piperazin-1-yl]-1H-quinazolin-4-one] was 198 to 201 °C; that for `CCN(C)Cc1ccc2c(c1)CN(c1nc(=O)c3c(OC)c(OC)c(OC)cc3[nH]1)CC2` [Example 1, 2-{7-[(Ethyl-methyl-ami-no)-methyl]-3,4-di-hydro-1H-isoquinolin-2-yl}-5,6,7-tri-methoxy-1H-quina-zolin-4-one] was 161.4 to 163.9 °C.
As for `CCN(C)Cc1ccc2c(c1)CN(c1nc(=O)c3c(C)c(OC)c(OC)cc3[nH]1)CC2` [Example 2, 2-{7-[(Ethyl-methyl-ami-no)-methyl]-3,4-di-hydro-1H-isoquinolin-2-yl}-6,7-di-methoxy-5-meth-yl-1H-quinazolin-4-one], the figure is 189.4 to 204.6 °C.
`CCN(C)Cc1cccc2c1CCN(c1nc(=O)c3c(OC)c(OC)c(OC)cc3[nH]1)C2` [Example 3, 2-{5-[(Ethyl-methyl-ami-no)-methyl]-3,4-di-hydro-1H-isoquinolin-2-yl}-5,6,7-tri-methoxy-1H-quinazolin-4-one] registered a melting point of 214 to 216.9 °C.
The value for `CNCc1ccc2c(c1)CN(c1nc(=O)c3c(OC)c(OC)c(OC)cc3[nH]1)CC2` [Example 4, 5,6,7-Trimethoxy-2-(7-meth-ylaminomethyl-3,4-di-hydro-1H-isoquino-lin-2-yl)-1H-quina-zolin-4-one] was 178.1 to 180.9 °C.
`CNCc1cccc2c1CCN(c1nc(=O)c3c(C)c(OC)c(OC)cc3[nH]1)C2` [Example 6, 6,7-Dimethoxy-5-meth-yl-2-(5-methyl-aminomethyl-3,4-di-hydro-1H-isoquinolin-2-yl)-1H-quin-azolin-4-one] had a melting point of 241.9 to 245.5 °C.
The value for `COc1cc2c(cc1OC)CN(c1cc(=O)c3cc(Cl)c(Cl)cc3[nH]1)CC2` [Example 7, 6,7-Dichloro-2-(6,7-di-methoxy-3,4-dihydro-1H-iso-quinolin-2-yl)-1H-quino-lin-4-one] was 266 to 271 °C; that for `CNCC(=O)N(C)Cc1cccc2c1CCN(c1nc(=O)c3c(C)c(OC)c(OC)cc3[nH]1)C2` [Example 8, N-[2-(6,7-Dimethoxy-5-meth-yl-4-oxo-1,4-di-hydro-quina-zolin-2-yl)-1,2,3,4-tetrahydro-iso-quinolin-5-ylmethyl]-N-meth-yl-2-methyl-amino-acetamide] was 208.8 to 212 °C.
The value for `COc1cc2[nH]c(N3CCc4c(cccc4/N=C4\CCCN4C)C3)nc(=O)c2c(C(C)C)c1OC` [Example 9, 5-Isopropyl-6,7-di-methoxy-2-{5-[1-meth-yl-pyrolidin-(2E)-ylidene-amino]-3,4-di-hydro-1H-iso-quinolin-2-yl}-1H-quina-zolin-4-one] was 196 to 200 °C.
As for `COc1cc2[nH]c(N3CCN(c4cccc(C)n4)CC3)nc(=O)c2c(OC)c1OC` [Example 24, 5,6,7-Trimethoxy-2-[4-(6-meth-yl-pyridin-2-yl)-pipe-razin-1-yl]-1H-quina-zolin-4-one], the figure is 231.1 to 232.2 °C; as for `COc1cc2[nH]c(N3CCN(c4cc(C)ccn4)CC3)nc(=O)c2c(OC)c1OC` [Example 25, 5,6,7-Trimethoxy-2-[4-(4-meth-yl-pyridin-2-yl)-pipe-razin-1-yl]-1H-quina-zolin-4-one], 235.3 to 235.5 °C; as for `COc1cc2[nH]c(N3CCN(c4cccc[n+]4[O-])CC3)nc(=O)c2c(OC)c1OC` [Example 26, 5,6,7-Trimethoxy-2-[4-(1-oxy-py-ridin-2-yl)-pipe-razin-1-yl]-1H-quina-zolin-4-one], 142.8 to 147.2 °C.
`COc1cc2[nH]c(N3CCN(c4nccn4C)CC3)nc(=O)c2c(OC)c1OC` [Example 28, 5,6,7-Trimethoxy-2-[4-(1-meth-yl-1H-imidazol-2-yl)-pipe-razin-1-yl]-1H-quina-zolin-4-one] showed a melting point of 227 to 229 °C.
As for `COc1ccnc(N2CCN(c3nc(=O)c4c(OC)c(OC)c(OC)cc4[nH]3)CC2)c1` [Example 30, 5,6,7-Trimethoxy-2-[4-(4-meth-oxy-pyridin-2-yl)-pipe-razin-1-yl]-1H-quina-zolin-4-one], the figure is 229 to 231 °C; as for `COc1cc2[nH]c(N3CCN(c4cccc(C)n4)CC3)nc(=O)c2c(C)c1OC` [Example 42, 6,7-Dimethoxy-5-meth-yl-2-[4-(6-methyl-py-ridin-2-yl)-piperazin-1-yl]-1H-quina-zolin-4-one], 284.5 to 285.5 °C; as for `COC[C@@H]1CCCN1CCC1CCN(c2nc(=O)c3c(C)c(OC)c(OC)cc3[nH]2)CC1` [Example 51, 6,7-Dimethoxy-2-{4-[2-((S)-2-meth-oxymethyl-pyr-rolidin-1-yl)-ethyl]-pipe-ridin-1-yl}-5-meth-yl-1H-quinazolin-4-one], 83.1 to 110.9 °C.
As for `COC[C@H]1CCCN1CCC1CCN(c2nc(=O)c3c(C)c(OC)c(OC)cc3[nH]2)CC1` [Example 57, 6,7-Dimethoxy-2-{4-[2-((R)-2-meth-oxymethyl-pyr-rolidin-1-yl)-ethyl]-pipe-ridin-1-yl}-5-meth-yl-1H-quinazolin-4-one], the figure is 219 to 221.9 °C.
The value for `COc1cc2[nH]c(N3CCC(OCc4ccccc4S(=O)(=O)N(C)C)CC3)nc(=O)c2c(C)c1OC` [Example 61, 2-[1-(6,7-Dimethoxy-5-meth-yl-4-oxo-1,4-di-hydro-quinazolin-2-yl)-pipe-ridin-4-yl-oxymethyl]-N,N-dimethyl-benzene-sulfonamide] was 217.9 to 219.8 °C.

One may read the melting point as the temperature of the solid-liquid transition.
